Experimental data as given in patent US20230304058A1, “NOVEL 5'CAP ANALOG HAVING CAP2 STRUCTURE AND PREPARATION METHOD THEREFOR” (Shenzhen Rhegen Biotechnology Co., Ltd., priority 2020, published 2023).

Tests used:
mRNA = mRNA capping rate by RNase H cleavage and LC-MS; type: biochemical; conditions: ratio of capped and uncapped mRNA
Source text: The mRNA molecules with different Cap structures obtained in Example 1 were subjected to enzymatic cleavage, and the ratio of capped and uncapped mRNA molecules could be determined in a liquid chromatography-mass spectrometry analysis experiment.
1. Concentrate the beads using a magnet, aspirate the supernatant storage solution, and add an equal volume of 0.1 M NaOH +0.05 M NaCl;
2. Aspirate the supernatant and resuspend the beads with an equal volume of 0.1 M NaCl, keep the concentration constant;
3. Anneal mRNA and cleavage tags, configure the following reaction system;
Gradient annealing: 95° C. 5 min
4. Combining cleavage tags with beads • Beads were centrifuged at 15,000 g for 5 min, and the supernatant was removed, then 120 μl of annealed mRNA and tags were added and incubated for 30 min at room temperature, during which time they were gently shaken to ensure adequate binding.
5. Enzyme cleavage using RNase H; • Add 10 μl RNase H and incubate at 37° C. for 3 h. Precipitate the beads with magnet and discard the supernatant. • Add 100 μl washing buffer, mix thoroughly, magnet precipitate for 2 min, and discard the supernatant. Repeat 3 times. • Wash with DI water for 3 times.
6. Hydrolysis with RppH; • Use 10 units RppH in nebuffer 2 to hydrolyze at room temperature for 1 h.
DI water was aspirated, 100 μl of 75% ethanol preheated to 80° C. was added, incubat for 3 min, and magnet precipitat for 3 min. The supernatant was taken, followed by evaporating, and centrifuge for 45 min to a volume of 10 μl. Finally, the sample was resuspended in 50 μl of […] EDTA/1% MeOH and left for LC-MS analysis.
9. the mRNA capping rate of different Cap analogs synthesized was analyzed with LC-MS.

T7 Enzyme Mix = T7 Enzyme Mix (Escherichia phage T7, UniProt P00573); test: In vitro transcription mRNA synthesis with cap analog, reaction yield; type: biochemical; conditions: per ml transcription reaction system; 37° C. for 6 h; LiCl purification
T7 Enzyme Mix, sequence (P00573 whole entry): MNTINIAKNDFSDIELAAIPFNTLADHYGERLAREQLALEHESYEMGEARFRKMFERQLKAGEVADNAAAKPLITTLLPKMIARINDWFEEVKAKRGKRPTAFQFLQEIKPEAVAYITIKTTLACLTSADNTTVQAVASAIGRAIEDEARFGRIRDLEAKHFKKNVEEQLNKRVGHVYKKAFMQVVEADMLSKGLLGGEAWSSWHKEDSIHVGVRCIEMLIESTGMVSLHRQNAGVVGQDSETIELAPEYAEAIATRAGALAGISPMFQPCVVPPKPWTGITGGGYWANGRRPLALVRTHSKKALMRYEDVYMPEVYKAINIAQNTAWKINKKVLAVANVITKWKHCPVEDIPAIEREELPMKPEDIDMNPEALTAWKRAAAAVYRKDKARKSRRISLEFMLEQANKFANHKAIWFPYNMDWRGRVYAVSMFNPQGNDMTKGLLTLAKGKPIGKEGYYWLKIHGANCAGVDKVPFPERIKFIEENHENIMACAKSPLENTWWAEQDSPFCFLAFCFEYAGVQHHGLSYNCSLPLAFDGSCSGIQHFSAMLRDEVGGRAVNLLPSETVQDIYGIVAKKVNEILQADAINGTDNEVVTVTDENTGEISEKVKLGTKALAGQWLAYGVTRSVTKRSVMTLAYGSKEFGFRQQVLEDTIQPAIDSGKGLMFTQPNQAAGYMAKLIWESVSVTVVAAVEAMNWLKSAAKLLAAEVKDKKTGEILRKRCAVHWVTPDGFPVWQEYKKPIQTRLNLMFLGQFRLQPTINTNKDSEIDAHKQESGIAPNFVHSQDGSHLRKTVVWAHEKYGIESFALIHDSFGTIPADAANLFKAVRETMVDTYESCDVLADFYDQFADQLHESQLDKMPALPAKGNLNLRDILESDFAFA
Procedure: 1. Before synthesizing mRNA, linearize the plasmid with Notl, digested at […] overnight;
2. Extract with DNA template;
React at 37° C. for 6 h. Digest with TURBO DNase for 15 min.
4. Purify the transcription products using LiCl solution and calculate the reaction yields.

[1] = tested on: TLR3, TLR7, TLR8 and RIG-1; test: Intracellular immunogenicity of capped mRNA by RNA immunoprecipitation and quantitative PCR; type: cell-based; conditions: relative to ARCA; Human-derived PBMC cells, 5 μg mRNA, Lipofectamine 2000, 24 h
Procedure: Experimental methods: the intracellular immunoproteins TLR3, TLR7, TLR8 and RIG-1 were immunoprecipitated together with their bound RNAs by RNA immunoprecipitation, and finally these mRNAs were identified by real-time quantitative PCR, and their relative abundance was proportional to their immunogenicity.
The cells were collected by trypsin digestion 24 h later and resuspended in PBS, centrifuged, and collected.
Fixative was added to the cells, and after 15 minutes glycine was added for termination of fixation, followed by centrifugation to collect the cells. Cells were resuspended by adding lysate, incubated on ice at 4° C. for 30 min, centrifuged at 2400 g for 10 min, and the supernatant was collected.
TLR3, TLR7, TLR8 and RIG-1 antibodies (2-10 μg) were added to the supernatant (6-10 mg) followed by gentle incubation at 4° C. for 2 hours. Protein AIG beads (40 μL) were then added to them and incubated gently for 1 h at 4° C.
Centrifuge at 2500 rpm for 30 seconds with precipitated magnetic beads and remove the supernatant. Resuspend the beads in 500 μL of RIP buffer. Wash in RIP buffer a total of three times, followed by one wash in PBS.
Resuspend magnetic beads in TRIzol RNA Extraction Reagent (1 mL) and isolate co-precipitated RNA, and then elute RNA using nuclease-free water (20 μL).
6. Reverse transcribe (RT) the RNA into cDNA and design primers according to the mRNA sequence for quantitative PCR analysis. mRNA immunogenicity is proportional to the number of mRNA copies precipitated by magnetic beads.

CO[C@@H]1[C@H](O)[C@@H](COP(=O)(O)O[C@H]2[C@@H](OC)[C@H](n3cnc4c(N)ncnc43)O[C@@H]2COP(=O)(O)OP(=O)(O)OP(=O)([O-])OC[C@H]2O[C@@H](n3c[n+](C)c4c(=O)[nH]c(N)nc43)[C@H](O)[C@@H]2O)O[C@H]1n1cnc2c(=O)[nH]c(N)nc21 [Cap analog 1, m7G(5′)ppp(5′)(2′OMeA)p(2′OMeG)]
mRNA capping rates when using different Cap structures (mRNA): 94.91% | Mass of final product obtained from 1 ml mRNA synthesis reaction system (T7 Enzyme Mix): 4.5 mg | Intracellular immunogenicity of mRNA when using different Cap structures [1]: 0.40

CO[C@@H]1[C@H](O)[C@@H](COP(=O)(O)O[C@H]2[C@@H](OC)[C@H](n3cnc4c(=O)[nH]c(N)nc43)O[C@@H]2COP(=O)(O)OP(=O)(O)OP(=O)([O-])OC[C@H]2O[C@@H](n3c[n+](C)c4c(=O)[nH]c(N)nc43)[C@H](O)[C@@H]2O)O[C@H]1n1cnc2c(=O)[nH]c(N)nc21 [Cap analog 2, m7G(5′)ppp(5′)(2′OMeG)p(2′OMeG)]
mRNA capping rates when using different Cap structures (mRNA): 95.1% | Mass of final product obtained from 1 ml mRNA synthesis reaction system (T7 Enzyme Mix): 4.9 mg | Intracellular immunogenicity of mRNA when using different Cap structures [1]: 0.37

CO[C@@H]1[C@H](OP(=O)(O)OC[C@H]2O[C@@H](n3cnc4c(=O)[nH]c(N)nc43)[C@H](OC)[C@@H]2O)[C@@H](COP(=O)(O)OP(=O)(O)OP(=O)([O-])OC[C@H]2O[C@@H](n3c[n+](C)c4c(=O)[nH]c(N)nc43)[C@H](O)[C@@H]2O)O[C@H]1n1ccc(N)nc1=O [Cap analog 3, m7G(5′)ppp(5′)(2′OMeC)p(2′OMeG)]
mRNA capping rates when using different Cap structures (mRNA): 94.82% | Mass of final product obtained from 1 ml mRNA synthesis reaction system (T7 Enzyme Mix): 5.8 mg | Intracellular immunogenicity of mRNA when using different Cap structures [1]: 0.28

CO[C@@H]1[C@H](OP(=O)(O)OC[C@H]2O[C@@H](n3cnc4c(=O)[nH]c(N)nc43)[C@H](OC)[C@@H]2O)[C@@H](COP(=O)(O)OP(=O)(O)OP(=O)([O-])OC[C@H]2O[C@@H](n3c[n+](C)c4c(=O)[nH]c(N)nc43)[C@H](O)[C@@H]2O)O[C@H]1n1ccc(=O)[nH]c1=O [Cap analog 4, m7G(5′)ppp(5′)(2′OMeU)p(2′OMeG)]
mRNA capping rates when using different Cap structures (mRNA): 94.72% | Mass of final product obtained from 1 ml mRNA synthesis reaction system (T7 Enzyme Mix): 4.7 mg | Intracellular immunogenicity of mRNA when using different Cap structures [1]: 0.48

CO[C@@H]1[C@H](O)[C@@H](COP(=O)(O)O[C@H]2[C@@H](OC)[C@H](n3cnc4c(N)ncnc43)O[C@@H]2COP(=O)(O)OP(=O)(O)OP(=O)([O-])OC[C@H]2O[C@@H](n3c[n+](C)c4c(=O)[nH]c(N)nc43)[C@H](O)[C@@H]2O)O[C@H]1n1cnc2c(N)ncnc21 [Cap analog 5, m7G(5′)ppp(5′)(2′OMeA)p(2′OMeA)]
mRNA capping rates when using different Cap structures (mRNA): 94.88% | Mass of final product obtained from 1 ml mRNA synthesis reaction system (T7 Enzyme Mix): 4.4 mg | Intracellular immunogenicity of mRNA when using different Cap structures [1]: 0.52

CO[C@@H]1[C@H](O)[C@@H](COP(=O)(O)O[C@H]2[C@@H](OC)[C@H](n3cnc4c(=O)[nH]c(N)nc43)O[C@@H]2COP(=O)(O)OP(=O)(O)OP(=O)([O-])OC[C@H]2O[C@@H](n3c[n+](C)c4c(=O)[nH]c(N)nc43)[C@H](O)[C@@H]2O)O[C@H]1n1cnc2c(N)ncnc21 [Cap analog 6, m7G(5′)ppp(5′)(2′OMeG)p(2′OMeA)]
mRNA capping rates when using different Cap structures (mRNA): 94.65% | Mass of final product obtained from 1 ml mRNA synthesis reaction system (T7 Enzyme Mix): 5.1 mg | Intracellular immunogenicity of mRNA when using different Cap structures [1]: 0.38

CO[C@@H]1[C@H](OP(=O)(O)OC[C@H]2O[C@@H](n3cnc4c(N)ncnc43)[C@H](OC)[C@@H]2O)[C@@H](COP(=O)(O)OP(=O)(O)OP(=O)([O-])OC[C@H]2O[C@@H](n3c[n+](C)c4c(=O)[nH]c(N)nc43)[C@H](O)[C@@H]2O)O[C@H]1n1ccc(N)nc1=O [Cap analog 7, m7G(5′)ppp(5′)(2′OMeC)p(2′OMeA)]
mRNA capping rates when using different Cap structures (mRNA): 94.76% | Mass of final product obtained from 1 ml mRNA synthesis reaction system (T7 Enzyme Mix): 5.3 mg | Intracellular immunogenicity of mRNA when using different Cap structures [1]: 0.24
